Test results from patent publication US20030113797A1, “Method for generating, screening and dereplicating natural product libraries for the discovery of therapeutic agents” (UNIGEN PHARMACEUTICALS, INC., priority 2001, published 2003).

What was measured:
[1] = system: COX-1 and COX-2 recombinant enzymes; conditions: major compound of fraction D3, Camellia sinensis aqueous extract; cited from earlier work
[2] = system: B16 F1 mouse melanoma cells; assay: Inhibition of melanogenesis (alpha-MSH stimulated melanin formation); type: cell-based; conditions: identified by dereplication of fractions D2 to D7
Protocol: Inhibition of melanogenesis was determined by a modified method of Siegrist and Eberle (x). B16 F1 mouse melanoma cells (2.0×10^4 cells/mL) were subcultured in GibcoBRL Modified Eagle Medium (10% FBS, 1% Gibco non-essential amino acids, 1% PSG, 1.5% Gibco vitamin solution). After 3 days incubation (37° C., 5% CO2) cells were seeded (2500 cells/well, 200 μL) in 96 well sterile culture plates (Costar) and incubated overnight (37° C., 5% CO2). The next day, cell culture medium was replaced with 100 μL fresh medium. Extract samples were dissolved in DMSO at a concentration of 30 mg/mL and diluted 1:1000 in cell culture medium on separate, sterile, 96 well plates. […] Sample wells containing no α-MSH were used to determine sample absorbance at 450 nm unrelated to melanin pigment formation as control. […] The degree of melanin formation was determined at 450 nm in a 96 well plate reader. Percent inhibition of samples was determined by the formula: […]
Ac MSH+: Absorbance at 450 nm of cells containing no sample, with MSH
Ac MSH−: Absorbance at 450 nm of cells containing no sample, without MSH
As MSH+: Absorbance at 450 nm of cells containing sample, with MSH
As MSH−: Absorbance at 450 nm of cells containing sample, without MSH

SMILES	COX inhibitor (known activity) [1]	Inhibition of melanin synthesis [2]
O=C(O[C@@H]1Cc2c(O)cc(O)cc2O[C@@H]1c1cc(O)c(O)c(O)c1)c1cc(O)c(O)c(O)c1 [Epigallocatechin Gallate (EGCG), Epigallocatechin Gallate]	well known COX inhibitor	
O=C(OC1C(CO)OC(O)C2OC(=O)c3cc(O)c(O)c(O)c3-c3c(cc(O)c(O)c3O)C(=O)OC21)c1cc(O)c(O)c(O)c1 (centres unmarked) [Pterocaryanin B]		inhibition of melanin synthesis
